Source: patent US20040047885A1, “Use of compounds which make it possible to modify the physicochemical properties of the skin and/or the mucous membranes as agents preventing or reducing the adhesion of microorganisms to the latter” (priority 2000, published 2004)
Where two headings read alike, the source gives them in different places.

Tested on: Staphylococcus aureus
Assay type: cell-based
Details: vs water
Procedure: These compounds are chosen so that the decimal logarithm of the mean number of viable bacteria adhering to reconstructed epidermis, after a test consisting in bringing the said epidermis into contact with the test compound for 2 hours at 37° C., is at least 0.3 less than that obtained by a test carried out with water under the same conditions.
The reconstructed epidermis used in the test indicated above is reconstructed human epidermis, equivalent to human skin, sold by EPISKIN.
The antiadhesion test corresponds to the protocol below:
Before bacterial adhesion, the reconstructed epidermis is brought into contact for 2 hours with 25 mg of the product to be tested at 37° C. 1 ml of bacterial suspension of Staphylococcus aureus at a concentration of […] in Tryptone salt is then added thereto. After incubating for 24 hours at 37° C., the bacterial suspension is emptied and five rinsings are carried out with 1 ml of sterile distilled water. The epidermis, detached from its support, is then ground with the aid of a food processor in 18 ml of Tryptone salt. A decimal dilution is carried out on this suspension in Tryptone salt, and 1 ml of the dilution is then inoculated into 15 ml of Trypticase Soy agar and the medium is incubated for 24 hours at 37° C. The adherent and viable cells are then counted.
This antiadhesion test makes it possible to evaluate the efficacy of molecules alone or of finished products.
The figures presented opposite the compound correspond to the reduction of the decimal logarithm of the mean number of viable Staphylococcus aureus adhering to reconstructed epidermis after treatment with the compound under the conditions defined by the preceding test compared with the decimal logarithm of the mean number of viable Staphylococcus aureus adhering to reconstructed epidermis after treatment with water under the same conditions.

[1] = reconstructed human epidermis (EPISKIN) contacted 2 hours at 37° C. with 25 mg product, then 24 hours with bacterial suspension

Molecule | reduction of the decimal logarithm of the mean number of viable Staphylococcus aureus adhering to reconstructed epidermis compared with water [1] | reduction of the decimal logarithm of the mean number of viable Staphylococcus aureus adhering to reconstructed epidermis compared with water (tested at 5% active substance, epidermis contacted 2 hours at 37° C.)
CCCCCCCCOC(=O)CCCCC(=O)OCCCCCCCC [Dioctyl adipate] | 0.90 | –
Disodium cocoamphodiacetate | 1.34 | –
Ricinoleic monoethanolamide monosulphosuccinate salt | – | 3.84
Tartrate of branched C12-C13 dialcohols | 2.31 | –
